Experimental data reported in ChEMBL document CHEMBL1201862, “PubChem BioAssay data set” (2004).
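1) Cells in 96-well plates. 2) Compound, 48 h, 5 concentrations. 3) Linear interpolation between surrounding doses. 4) Unreached endpoint = highest concentration. At the GI50, growth is halved.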 Activity calls are given as the source filed them. Cut-off read from the data, not from the text of the source: active = GI50 up to about 1.1 µM and inactive = higher.

Columns and labels:
Experiment in all cases: NCI-60 cell line screen, 48 h
NCI/ADR-RES = test system: NCI/ADR-RES
HCT-15 = test system: HCT-15
K562 = test system: K562
EKVX = test system: EKVX
HCC 2998 = test system: HCC 2998
PC-3 = test system: PC-3
UACC-62 = test system: UACC-62
BT-549 = test system: BT-549
HOP-62 = test system: HOP-62
NCI-H226 = test system: NCI-H226
SK-MEL-2 = test system: SK-MEL-2
COLO 205 = test system: COLO 205
UO-31 = test system: UO-31
HOP-92 = test system: HOP-92
SK-OV-3 = test system: SK-OV-3
MDA-MB-435 = test system: MDA-MB-435
OVCAR-5 = test system: OVCAR-5
A498 = test system: A498
SW-620 = test system: SW-620
OVCAR-3 = test system: OVCAR-3
HT-29 = test system: HT-29
IGROV-1 = test system: IGROV-1
SK-MEL-28 = test system: SK-MEL-28
MDA-N = test system: MDA-N
OVCAR-4 = test system: OVCAR-4
RPMI-8226 = test system: RPMI-8226
ACHN = test system: ACHN
LOX IMVI = test system: LOX IMVI
TK-10 = test system: TK-10
NCI-H23 = test system: NCI-H23
SF-268 = test system: SF-268
U-251 = test system: U-251
MDA-MB-231 = test system: MDA-MB-231
SN12C = test system: SN12C
SR = test system: SR
M14 = test system: M14
RXF 393 = test system: RXF 393
DU-145 = test system: DU-145
SNB-75 = test system: SNB-75
MCF7 = test system: MCF7
UACC-257 = test system: UACC-257
Hs-578T = test system: Hs-578T
SF-295 = test system: SF-295
T47D = test system: T47D
SNB-19 = test system: SNB-19
CCRF-CEM = test system: CCRF-CEM
A549 = test system: A549
SF-539 = test system: SF-539
HL-60 = test system: HL-60
NCI-H460 = test system: NCI-H460
MOLT-4 = test system: MOLT-4
HCT-116 = test system: HCT-116
786-0 = test system: 786-0
NCI-H522 = test system: NCI-H522
Malme-3M = test system: Malme-3M
CAKI-1 = test system: CAKI-1
KM12 = test system: KM12
SK-MEL-5 = test system: SK-MEL-5
OVCAR-8 = test system: OVCAR-8

Measured: GI50

O=C(OCCNC(=O)N1CC1)OCCNC(=O)N1CC1
inactive: NCI/ADR-RES > 10 µM | K562 > 10 µM | EKVX > 10 µM | HCC 2998 > 10 µM | PC-3 > 10 µM | UACC-62 > 10 µM | BT-549 > 10 µM | HOP-62 > 10 µM | NCI-H226 > 10 µM | SK-MEL-2 > 10 µM | COLO 205 > 10 µM | UO-31 > 10 µM | HOP-92 > 10 µM | SK-OV-3 > 10 µM | MDA-MB-435 > 10 µM | OVCAR-5 > 10 µM | A498 > 10 µM | SW-620 > 10 µM | OVCAR-3 > 10 µM | HT-29 > 10 µM | IGROV-1 > 10 µM | SK-MEL-28 > 10 µM | MDA-N > 10 µM | OVCAR-4 > 10 µM | RPMI-8226 > 10 µM | ACHN > 10 µM | LOX IMVI > 10 µM | TK-10 > 10 µM | NCI-H23 > 10 µM | SF-268 > 10 µM | U-251 > 10 µM | MDA-MB-231 > 10 µM | SN12C > 10 µM | SR > 10 µM | M14 > 10 µM | RXF 393 > 10 µM | DU-145 > 10 µM | SNB-75 > 10 µM | MCF7 > 10 µM | UACC-257 > 10 µM | Hs-578T > 10 µM | SF-295 > 10 µM | T47D > 10 µM | SNB-19 > 10 µM | CCRF-CEM > 10 µM | A549 > 10 µM | SF-539 > 10 µM | HL-60 > 10 µM | NCI-H460 > 10 µM | MOLT-4 > 10 µM | HCT-116 > 10 µM | 786-0 > 10 µM | NCI-H522 > 10 µM | Malme-3M > 10 µM | CAKI-1 > 10 µM | KM12 > 10 µM | SK-MEL-5 > 10 µM | OVCAR-8 > 10 µM
> 10 µM: HCT-15

Cc1cc(=O)n2nc(CSc3nnc(Sc4cc(O)ccc4O)s3)sc2n1
inactive: NCI/ADR-RES > 100 µM | K562 21.5 µM | EKVX 99.3 µM | HCC 2998 > 100 µM | PC-3 > 100 µM | UACC-62 50 µM | BT-549 39.3 µM | HOP-62 > 100 µM | NCI-H226 > 100 µM | SK-MEL-2 > 100 µM | COLO 205 68.5 µM | UO-31 > 100 µM | HOP-92 35.4 µM | SK-OV-3 > 100 µM | MDA-MB-435 18.5 µM | OVCAR-5 > 100 µM | A498 > 100 µM | SW-620 22.8 µM | OVCAR-3 34.4 µM | HT-29 > 100 µM | IGROV-1 > 100 µM | SK-MEL-28 54.1 µM | MDA-N 18.6 µM | OVCAR-4 54.7 µM | RPMI-8226 24.5 µM | ACHN > 100 µM | LOX IMVI 21.7 µM | TK-10 > 100 µM | NCI-H23 > 100 µM | SF-268 54.6 µM | U-251 35.8 µM | MDA-MB-231 34.9 µM | SN12C 58.1 µM | SR 28.3 µM | M14 79.1 µM | RXF 393 51.6 µM | DU-145 > 100 µM | SNB-75 > 100 µM | MCF7 14.2 µM | UACC-257 > 100 µM | Hs-578T 44.9 µM | SF-295 > 100 µM | T47D 32.1 µM | SNB-19 > 100 µM | CCRF-CEM 22.6 µM | A549 > 100 µM | SF-539 > 100 µM | HL-60 26.4 µM | NCI-H460 > 100 µM | MOLT-4 24.4 µM | HCT-116 19.7 µM | 786-0 41.3 µM | NCI-H522 20.4 µM | Malme-3M 40.3 µM | CAKI-1 > 100 µM | KM12 > 100 µM | SK-MEL-5 64.1 µM | OVCAR-8 67.1 µM
> 100 µM: HCT-15

Cc1cc2c(cc1-c1cc3c(cc1C)C(C(C)C)=C(O)C(=O)/C3=C\NCC1CCCN3CCCCC13)/C(=C/NCC1CCCN3CCCCC13)C(=O)C(O)=C2C(C)C (stereo not given)
5.33 µM: HCT-15
inactive: NCI/ADR-RES 7.36 µM | K562 12.2 µM | EKVX 7.98 µM | HCC 2998 17.5 µM | PC-3 5.02 µM | UACC-62 7.78 µM | BT-549 15.9 µM | HOP-62 4.27 µM | NCI-H226 11 µM | SK-MEL-2 8.02 µM | COLO 205 3.47 µM | UO-31 3.43 µM | HOP-92 15.8 µM | SK-OV-3 4 µM | MDA-MB-435 7.62 µM | OVCAR-5 10.8 µM | A498 23.1 µM | SW-620 5.48 µM | OVCAR-3 3.01 µM | HT-29 2.47 µM | IGROV-1 5.97 µM | SK-MEL-28 12.1 µM | MDA-N 5.78 µM | OVCAR-4 6.79 µM | RPMI-8226 11.3 µM | ACHN 3.81 µM | LOX IMVI 3.35 µM | TK-10 8.36 µM | NCI-H23 6.27 µM | SF-268 3.85 µM | U-251 2.9 µM | MDA-MB-231 4.16 µM | SN12C 4.82 µM | SR 26.2 µM | M14 5.02 µM | RXF 393 5.93 µM | DU-145 11 µM | SNB-75 8.15 µM | MCF7 12.4 µM | UACC-257 15.3 µM | Hs-578T 10.2 µM | SF-295 6.27 µM | T47D 8.05 µM | SNB-19 7.98 µM | CCRF-CEM 2.83 µM | A549 4.93 µM | SF-539 14.9 µM | HL-60 2.97 µM | NCI-H460 5.14 µM | MOLT-4 3.52 µM | HCT-116 4.72 µM | 786-0 3.02 µM | NCI-H522 2.84 µM | Malme-3M 10.3 µM | CAKI-1 3.81 µM | KM12 5.15 µM | SK-MEL-5 6.75 µM | OVCAR-8 3.61 µM

O=C1CC(C(O)(C(F)(F)F)C(F)(F)Cl)CCC1C(O)(C(F)(F)F)C(F)(F)Cl (stereo not given)
inactive: NCI/ADR-RES > 10 µM | K562 > 10 µM | EKVX > 10 µM | HCC 2998 > 10 µM | PC-3 2.68 µM | UACC-62 7.55 µM | BT-549 > 10 µM | HOP-62 > 10 µM | NCI-H226 > 10 µM | SK-MEL-2 3.25 µM | COLO 205 4.6 µM | HOP-92 1.26 µM | SK-OV-3 > 10 µM | MDA-MB-435 > 10 µM | OVCAR-5 > 10 µM | A498 6.58 µM | SW-620 > 10 µM | OVCAR-3 > 10 µM | HT-29 5.78 µM | IGROV-1 > 10 µM | SK-MEL-28 > 10 µM | MDA-N > 10 µM | OVCAR-4 > 10 µM | RPMI-8226 > 10 µM | ACHN > 10 µM | LOX IMVI > 10 µM | TK-10 > 10 µM | NCI-H23 9.55 µM | SF-268 > 10 µM | U-251 > 10 µM | MDA-MB-231 > 10 µM | SN12C > 10 µM | SR > 10 µM | M14 > 10 µM | RXF 393 3.49 µM | DU-145 > 10 µM | SNB-75 8.71 µM | MCF7 8.71 µM | UACC-257 4.18 µM | Hs-578T > 10 µM | SF-295 7.5 µM | T47D > 10 µM | SNB-19 > 10 µM | CCRF-CEM > 10 µM | A549 > 10 µM | SF-539 7.18 µM | HL-60 > 10 µM | NCI-H460 > 10 µM | MOLT-4 > 10 µM | HCT-116 7.19 µM | 786-0 > 10 µM | NCI-H522 8.77 µM | Malme-3M > 10 µM | CAKI-1 > 10 µM | KM12 > 10 µM | SK-MEL-5 > 10 µM | OVCAR-8 > 10 µM
> 10 µM: HCT-15
